Test results published in ChEMBL document CHEMBL1152194, “Substituent control of DNA binding modes in a series of chalcogenoxanthylium photosensitizers as determined by isothermal titration calorimetry and topoisomerase I DNA unwinding assay” (Bioorg Med Chem, 2008).

Legend:
[1] = target: T1, DNA topoisomerase 1 (Homo sapiens) (UniProt P11387); assay: Inhibition of human DNA topoisomerase 1-induced unwinding activity using Escherichia coli pUC19 DNA assessed as bound compound per nucleotide pair at 24 uM
T1 sequence (whole entry): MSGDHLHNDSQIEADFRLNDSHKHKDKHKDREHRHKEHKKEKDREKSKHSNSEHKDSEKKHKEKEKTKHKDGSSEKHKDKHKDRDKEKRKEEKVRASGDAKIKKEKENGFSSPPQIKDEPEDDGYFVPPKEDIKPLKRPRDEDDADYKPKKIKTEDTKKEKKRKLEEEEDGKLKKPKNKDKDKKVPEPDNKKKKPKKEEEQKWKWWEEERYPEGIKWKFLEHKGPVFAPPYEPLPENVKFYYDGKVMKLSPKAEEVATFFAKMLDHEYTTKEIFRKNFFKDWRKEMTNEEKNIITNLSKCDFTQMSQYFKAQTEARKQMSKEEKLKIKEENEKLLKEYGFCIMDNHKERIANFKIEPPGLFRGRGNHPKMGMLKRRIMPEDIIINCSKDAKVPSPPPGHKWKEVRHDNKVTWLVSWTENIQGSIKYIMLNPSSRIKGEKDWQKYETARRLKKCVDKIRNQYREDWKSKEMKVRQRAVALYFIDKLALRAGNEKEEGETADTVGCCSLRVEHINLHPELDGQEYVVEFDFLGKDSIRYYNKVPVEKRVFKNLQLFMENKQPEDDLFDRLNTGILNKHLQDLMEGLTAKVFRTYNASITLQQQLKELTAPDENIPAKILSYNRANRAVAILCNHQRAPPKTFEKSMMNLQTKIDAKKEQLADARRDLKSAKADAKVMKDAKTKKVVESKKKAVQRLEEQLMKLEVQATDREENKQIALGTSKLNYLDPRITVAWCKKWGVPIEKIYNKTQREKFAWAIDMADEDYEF

physchem = conditions: octanol/water
[2] = Selectivity for Kb of [poly(dAdT)]2 DNA to Kb of [poly(dCdG)]2 DNA
DNA = assay: Binding affinity to ultrapure calf thymus DNA in MESOO buffer at pH 6.25 at 30 degC by isothermal titration calorimetry assay; format: nucleic-acid assay, Bos taurus

Compound: CCN(CC)C(=O)c1sccc1-c1c2ccc(=[N+](C)C)cc-2sc2cc(N(C)C)ccc12
- Activity [1]: 0.9

Compound: CN(C)c1ccc2c(-c3cccs3)c3ccc(=[N+](C)C)cc-3[se]c2c1
- logP (physchem): -0.31

Compound: CN(C)c1ccc2c(-c3ccccc3)c3ccc(=[N+](C)C)cc-3[se]c2c1
- Ratio pKb [2]: 3
- logP (physchem): 0.09

Compound: CN(C)c1ccc2c(-c3cccs3)c3ccc(=[N+](C)C)cc-3[te]c2c1.F[P-](F)(F)(F)(F)F
- Kd (DNA): 2.1 ×10⁶ /M
